Patent publication US12138301B2, “Compounds including a mutant KRAS sequence and a lipid and uses thereof” (Elicio Therapeutics, Inc., priority 2018, dated 2024)
“Also recorded” adds a separate entry of the source.

Key:
[1] = tested on: PBMCs/Splenocytes; test: ICS for IFNγ on PBMCs and ELISpot for IFNγ on splenocytes of immunized HLA-A2.1 transgenic mice (Example 3); type: in vivo, B6 HLA-A2.1 Tg mice; settings: peptide 20 μg s.c., two boosters at two-week intervals, HLA-A2.1 Tg mice
Source text: B6 mice transgenic for the human HLA gene, A2.1, were immunized either with the soluble or amphiphile-conjugated forms of the KRas G12D antigen, as well as adjuvant (CpG or aCpG). The A2.1 allele is known to mount responses to the KRas peptides in humans.
The experimental design included the following 4 groups of B6 HLA-A2.1 Tg mice immunized with the listed compounds (n=5 for each group): • 1. KRas wild-type+CpG • 2. KRas 12D+CpG • 3. aKRas 12D+aCpG • 4. No immunization
(§1) The adjuvant as well as peptide stock solutions were dissolved in H2O. Final injections were diluted with 1×PBS.
The aKRas peptides used were 18mer sequences of mutant sequences with a G12D substitution (amino acids 4-21 of wild-type 4 […] (SEQ ID NO:9)). 20 μg in 100 μl were used for each injection.
(§2) The aCpG sequence used was the CpG1826 sequence (5′-[…]-3′; SEQ ID NO:10) with two guanines added at the 5′ end (5′-gg […]-3′; SEQ ID NO:11) at a concentration of 5 nmol for each 100 μl injection.
The vaccine was administered subcutaneously to female mice bilaterally at the tail base at 50 μl per side. Two booster doses were given in two-week intervals.
Intracellular cytokine staining (ICS) analysis for IFNγ on peripheral blood mononuclear cells (PBMCs) and ELISpot analysis for IFNγ on splenocytes was performed, using standard protocols, 7 days after the second and third booster dose, respectively.
PBMCs/Splenocytes (10^6 cells/well and 2×10^6 cells/well) were activated with 5 μg/well of either SEQ ID NO:1 or one of SEQ ID NOS:12-20 as shown below:
Specific mutant peptides are given only to the mice that were immunized with the corresponding 18mer.

[2] = tested on: splenocytes; test: ELISpot analysis for IFNγ on splenocytes of immunized mice (Example 1, KRas G12D); type: in vivo, C57BL/6 mice; settings: splenocytes activated with G12D 18mer 5 μg/well
Protocol: The efficacy of soluble-KRas (KRas) or amphiphile-KRas (aKRas) (FIG. 6) mutant sequences and an amphiphile-CpG adjuvant (aCpG) to elicit an immune response was determined.
The experimental design included the following 4 groups of C57BL16 mice immunized with the listed compounds (n=5 for each group): • 1. KRas G12D+aCpG • 2. aKRas G12D+aCpG • 3. KRas G12D+pIC • 4. No immunization
PolyIC (pIC) was used as a benchmark adjuvant control.
The adjuvant, as well as peptide stock, solutions were dissolved in H2O. Final injections were diluted with 1×PBS (phosphate buffered saline).
The aKRas peptides used were 18mer sequences of mutant sequences with a G12D substitution (amino acids 4-21 of wild-type→YKLVVVGAGGVGKSALTI (SEQ ID NO:9)). 20 μg in 100 μl were used for each injection.
The aCpG sequence used was the CpG1826 sequence (5′-[…]-3′; SEQ ID NO:10) with two guanines added at the 5′ end (5′-gg […]-3′; SEQ ID NO:11) at a concentration of 5 nmol for each 100 μl injection. CpG1826 is an optimal mouse sequence while CpG7909 is optimal for humans and poorly active in mice. CpG1826 and CpG7909 are in the same CpG class (class B) and generally have similar activity profiles in their respective species.
50 μg of pIC were used for each 100 μl injection.
Primer immunizations were given subcutaneously (s.c.) into the tail base (day 0) with one booster dose after 2 weeks (day 14). ELISpot analysis for IFNγ on splenocytes was performed, using standard protocols, […] after booster dose administration (day 21). Splenocytes (10^6 cells/well) were activated with 5 μg/well of G12D sequence 18mer (aa4-21)→YKLVVVGADGVGKSALTI (SEQ ID NO:1).

[3] = tested on: splenocytes; test: ELISpot analysis for IFNγ on splenocytes, higher antigen concentration and bi-weekly or weekly dosing (Example 4); type: in vivo, C57BL/6 mice; settings: peptide 50 μg s.c.; for KRas-specific CD8+ T-cell response (9mers): restimulation with 9mers; for CD8+ or CD4+ T-cell response (18mer): restimulation with 18mer
Protocol: The concentration of antigen was increased from 20 μg to 50 μg and bi-weekly (bw) or weekly (w) dose intervals were tested.
The experimental design included the following 5 groups of C57BL/6 mice immunized with the listed compounds (n=5 for each group): • 1. KRas 12D+CpG1826 (bw) • 2. KRas 12D+CpG1826 (w) • 3. aKRas 12D+aCpG1826 (bw) • 4. aKRas 12D+aCpG1826 (w) • 5. No immunization
as §1
50 μg in 100 μl were used for each injection.
as §2
Primer immunizations were given subcutaneously (s.c.) into the tail base with one booster dose after 2 weeks.
ELISpot analysis for IFNγ, and CBA (cytometric bead array) analysis for IL6, I-10, IL12, TNFα, IFNγ, and MCP1 was performed on splenocytes, using standard protocols, 7 days after booster dose administration.
Specific mutant peptides were given only to the mice that were immunized with the corresponding 18mer.
Separate plates were prepared for either short (9mer and 10mer) or long (17mer and 18mer) peptide stimulations. Cells from “No immunization” control mice were stimulated with all stimuli.

[4] = tested on: splenocytes; test: ELISpot analysis for IFNγ on splenocytes of immunized mice (Example 2, KRas G12R and G12V); type: in vivo, C57BL/6 mice; settings: in combination with aCpG 5 nmol; peptide 20 μg s.c. day 0 + booster d14; splenocytes activated with G12V or G12R 18mer 5 μg/well
Protocol: as §2

[5] = tested on: KRAS-specific splenic T-cells; test: Summary of mouse immunogenicity studies: KRAS-specific splenic T-cells by ELISPOT and cytokine bead array (Example 5); type: in vivo, C57BL/6 mouse; settings: subcutaneous administration; identified by ELISPOT and cytokine bead array
[6] = in combination with aCpG 5 nmol, peptide 20 μg s.c. tail base day 0 + booster day 14
[7] = in combination with aCpG 5 nmol

With “YKLVVVGAGGVGKSALTI [soluble wild-type KRas]” the “KRas-specific CD8+ T-cell response” value ([1]; in combination with CpG) was “not”.

YKLVVVGADGVGKSALTI [soluble KRas G12D] was tested, and the “activation of splenocytes (ELISpot for IFNγ)” value (“activation of splenocytes” for short) [2, 6] was “did not”, the “activation of splenocytes” value ([2]; in combination with pIC 50 μg, peptide 20 μg s.c. day 0 + booster day 14) was “did not” and the “KRas-specific CD8+ T-cell response” value ([1]; in combination with CpG) was “not”. For the same substance, the “KRas-specific CD8+ T-cell response (9mers)” value ([3]; in combination with CpG) was “not” and the “CD8+ or CD4+ T-cell response (18mer)” value ([3]; in combination with CpG) was “not”.

In the case of YKLVVVGAVGVGKSALTI [soluble KRas G12V], the “activation of splenocytes” value [4] is reported as “did not”.

In the case of YKLVVVGARGVGKSALTI [soluble KRas G12R], the “activation of splenocytes” value [4] is reported as “did not”.

In the case of “DSPE-amido-dPEG24-amido-dPEG24-CYKLVVVGADGVGKSALTI [aKRas G12D]”, the “activation of splenocytes” value [2, 6] is reported as “activated splenocytes”, the “KRas-specific CD8+ T-cell response” value [1, 7] is reported as “KRas-specific CD8′ T-cell response; also recorded: KRas-specific CD8^+ T-cell response” and the “KRas-specific CD8+ T-cell response (9mers)” value [3, 7] is reported as “KRas-specific CD8^+ T-cell response”. For the same substance, the “CD8+ or CD4+ T-cell response (18mer)” value [3, 7] was “CD8′ or CD4*T-cell response; also recorded: CD8^+ or CD4^+ T-cell response” and the “inducing KRAS-specific splenic T-cells in mice” value [5] was “effective”.
